According to patent publication US5747535A, “Selective thrombin inhibitors” (priority 1995, dated 1998):
Read-outs that look alike come from different tables or passages of the source.

Assays:
bovine thrombin [1] = biological target: T1, bovine thrombin (Bos taurus, UniProt P00735); details: for Ki: read-out: Inhibitory activity for thrombin, Ki, bovine thrombin, pH 7.8, initial velocity, reaction started with enzyme;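 for all read-outs here: bovine thrombin cleaving the chromogenic substrate Chromozym TH, with para-nitroaniline release tracked as absorbance change over time to give initial rates, in Tris buffer at pH 7.8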
Source text: (§1) The thrombin inhibitory effect of the compound of formula (I) according to the present invention can be identified by determination of a dissociation constant Ki represented by the following equation according to the known method described in literature [see, Methods in enzymology V. 80,p341-361;Biochemistry 27,p2144-2151 (1988)].
(§2) The dissociation constant Ki denotes the degree of dissociation of the enzyme-thrombin inhibitor complex. […] Such dissociation constant can be determined by reacting thrombin with a certain substrate which develops a color when it is hydrolyzed by the action of thrombin, and then measuring the degree of color development as a function of time by means of spectrophotometry.
(§3) Chromozym TH is hydrolyzed by thrombin to produce yellow para-nitroaniline. Accordingly, the amount of yellow para-nitroaniline thus produced can be measured as the change of absorbance in the course of time to determine the thrombin inhibitory activity of the compound according to the present invention. That is, the enzyme activity can be determined from the rate of change in absorbance and then can be directly connected with the ability of the thrombin inhibitor to inhibit the enzyme activity (see, Methods in Enzymology, V. 80,p341-361,Biochemistry 27, p2144-2151, 1988).
(§4) The ability of the compound according to the present invention to inhibit the thrombin activity was determined as described in the following.
(§5) 1160 μl of 0.1M tris buffered solution (pH 7.8) containing 150 mM NaCl and 0.1% PEG 8000 (polyethylene glycol, molecular weight about 8,000) was added to a 1.5 ml cuvette. Chromozym TH was dissolved in dimethylsulfoxide(DMSO) in the concentration of 10mM and the resulting solution was diluted with the said tris buffered solution to the concentration of 0.1 mM, which was then used as the substrate solution. 225 μl of 0.1 mM substrate solution thus prepared was added to the cuvette. The inhibitor solution was prepared by dissolving the thrombin inhibitor compound according to the present invention in dimethylsulfoxide in the concentration of 10 mg/ml and then diluting the resulting solution with the said tris buffered solution to the concentration of 0.1 mg/ml, 0.01 mg/ml, 0.001 mg/ml and 0.0001 mg/ml. The resulting inhibitor solution was taken in an amount corresponding to 0 to 10 μg as the inhibitor and then diluted with tris buffered solution to make the total volume of 100 μl which was added to the cuvette.
(§6) 15 μl of bovine thrombin solution dissolved in above tris buffered solution in the concentration of 0.1 mg/ml was added to the cuvette to initiate the enzyme hydrolysis reaction. The amount of para-nitroaniline produced for 2 minutes from the moment the enzyme is added was monitored by measuring the absorbance at 381 nm. The continuous spectrum of absorbance to reaction time was depicted. The same experiments were conducted for various concentration of the inhibitor to obtain the continuous spectrum.
(§7) In each spectrum, the initial velocity Vi was obtained from the slope within initial 30 seconds of the reaction time and then a graph for the reciprocal value of initial velocity(1/Vi) to the inhibitor concentration was depicted. From the graph, the primary equation satisfying the points depicted thereon was obtained and then the value Ki was calculated from the x intercept of the primary equation using the enzyme reaction equation.
(§8) The velocity constant Ks was obtained using the same solution in the same concentration as in determination of the value Ki but using the following experimental procedure.

thrombin over trypsin = details: cited from earlier work
[2] = literature, cited from earlier work
[3] = human being; Osamu et al. 1986; cited from earlier work
trypsin = biological target: T2, trypsin (Bos taurus, UniProt P00760); test: biochemical; type: biochemical; details: 20 μM substrate; read-out: Inhibitory activity for trypsin, Ki
T2 sequence (P00760 24-246): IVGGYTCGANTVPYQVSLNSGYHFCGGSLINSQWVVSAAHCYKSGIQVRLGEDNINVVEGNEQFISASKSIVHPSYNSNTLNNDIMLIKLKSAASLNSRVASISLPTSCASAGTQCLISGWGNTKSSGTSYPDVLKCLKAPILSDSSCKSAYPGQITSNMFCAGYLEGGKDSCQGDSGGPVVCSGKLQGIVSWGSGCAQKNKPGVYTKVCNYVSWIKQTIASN
Experimental: To identify the selectivity for thrombin over trypsin of the compound of the present invention, the inhibitory activity for trypsin of the compound of formula (I) is measured as Ki value according to the same method as the above method for determination of thrombin inhibitory activity, and then the ratio of the activity for trypsin to the activity for thrombin is calculated. In this case, the procedure for determination of inhibitory activity for trypsin is substantially identical to that for thrombin, except that N-benzoyl-Val-Gly-Arg para-nitroanilide hydrochloride is used as the substrate.
As the substrate 20μM solution of N-benzoyl-Val-Gly-Arg-p-nitroanilide hydrochloride was used, and the inhibitor was used in various concnetrations within the range of […]. In addition, trypsin was dissolved in 0.1N HCl, adjusted to the concentration of 45 μg/ml with the said tris buffered solution just before the experiment, and then used in an amount of 40μl. As in the experiment for thrombin, a total volume of the reaction solution was 1.5 ml and the remaining procedure was conducted in the same manner.

bovine thrombin [4] = biological target: T1, bovine thrombin; test: biochemical
Source text: as §1, §2, §3, §4, §5, §6, §7, §8

In the case of CCCCN(C(=O)[C@H](Cc1ccc(C(=N)NN)cc1)NS(=O)(=O)c1ccc2ccccc2c1)C1CCCC1 [Example 5, (S)-N-cyclopentyl-N-butyl-3-(4-amidrazonophenyl)-2-(2-naphthylsulfonylamino)propionamide], the Ki (bovine thrombin [1]) is reported as 231 nM.
For N=C(N)c1ccc(CC(NC(=O)CNS(=O)(=O)c2ccc3ccccc3c2)C(=O)N2CCCCC2)cc1 (stereo not shown) [NAPAP], the “thrombin inhibitory activity relative to activity for trypsin (selectivity)” value (thrombin over trypsin; literature) is given as 50 times.
For N=C(N)N1CCC[C@@H](CNC(=O)C[C@H](NS(=O)(=O)c2ccc3ccccc3c2)C(=O)N(CC(=O)O)C2CC2)C1 [Ro 46-6240], the “selectivity for thrombin over trypsin” value (thrombin over trypsin; literature (J. Med. Chem. 1994, 37, 3889-3901)) is given as “improved selectivity for thrombin over trypsin”, the “possibility for oral administration” value ([2]; oral) is given as “does not show any possibility for oral administration” and the “half-life in blood” value [2] is given as “short half-life in blood”.
In the case of CCCN(C(=O)[C@H](Cc1ccc(C(=N)NN)cc1)NS(=O)(=O)c1ccc2ccccc2c1)C1CCCC1 [Example 3, (S)-N-cyclopentyl-N-propyl-3-(4-amidrazonophenyl)-2-(2-naphthylsulfonylamino)propionamide], the Ki (bovine thrombin [1]) is reported as 93 nM.
In the case of “Gly-Pro-Arg-4-nitroanilide acetate [Chromozym TH, reference compound]”, the Km (bovine thrombin [1]; substrate of thrombin, constant enzyme concentration) is reported as 8.3 µM.
In the case of CC1CNc2c(cccc2S(=O)(=O)N[C@@H](CCCNC(=N)N)C(=O)N2CC[C@@H](C)C[C@@H]2C(=O)O)C1 (stereo partly shown) [Argatroban], the elimination half-life [3] is listed as 40 min.
In the case of CNC(=N)c1ccc(C[C@H](NS(=O)(=O)c2ccc3ccccc3c2)C(=O)N(C)C2CCCC2)cc1 [Example 7, (S)-N-cyclopentyl-N-methyl-3-[4-(methylamidino)phenyl]-2-(2-naphthylsulfonylamino)propionamide], the Ki (trypsin) is reported as 363000 nM and the Ki (bovine thrombin [4]) is reported as 13.8 nM.
Compound CN(C(=O)[C@H](Cc1ccc(C(=N)NN)cc1)NS(=O)(=O)c1ccc2ccccc2c1)C1CCCCC1 [Example 15, (S)-N-cyclohexyl-N-methyl-3-(4-amidrazonophenyl)-2-(2-naphthylsulfonylamino)propionamide] has a Ki (bovine thrombin [1]) of 152 nM.
For CS(=O)(=O)N1CCN(C(=O)[C@H](Cc2ccc(C(=N)NN)cc2)NS(=O)(=O)c2ccc3ccccc3c2)CC1 [Example 50, (S)-naphthalene-2-sulfonic acid [1-(4-amidrazono)benzyl-2-(4-methylsulfonyl-piperazinyl)-2-oxoethyl]amide], the Ki (trypsin) was 5790 nM and the Ki (bovine thrombin [4]) was 11 nM.
For COc1cccc2c(S(=O)(=O)N[C@@H](Cc3ccc(C(=N)NN)cc3)C(=O)N(C)C3CCCC3)cccc12 [Example 19, (S)-3-[4-(amidrazono)-phenyl]-N-cyclopentyl-N-methyl-2-(5-methoxy-naphthalene-1-sulfonylamino)-propionamide], the Ki (trypsin) was 5250 nM and the Ki (bovine thrombin [4]) was 5.3 nM.
Compound CN(C(=O)[C@H](Cc1ccc(C(=N)NN)cc1)NS(=O)(=O)c1ccc2ccccc2c1)C1CC1 [Example 16, (S)-N-cyclopropyl-N-methyl-3-(4-amidrazonophenyl)-2-(2-naphthylsulfonylamino)propionamide] has a Ki (bovine thrombin [1]) of 247 nM.
CCCCN(C)C(=O)[C@H](Cc1ccc(C(=N)NN)cc1)NS(=O)(=O)c1ccc2ccccc2c1 [Example 2, (S)-N-butyl-N-methyl-3-(4-amidrazonophenyl)-2-(2-naphthylsulfonylamino)propionamide] showed a Ki (bovine thrombin [1]) of 41 nM.
For CNC(=N)c1ccc(C[C@H](NS(=O)(=O)c2cccc3c(N(C)C)cccc23)C(=O)N(C)C2CCCC2)cc1 [Example 21, (S)-3-[4-(methylamidino)-phenyl]-N-cyclopentyl-N-methyl-2-(5-dimethylamino-naphthalene-1-sulfonylamino)-propionamide], the Ki (trypsin) was over 100000 nM and the Ki (bovine thrombin [4]) was 25 nM.
With CN(C)c1cccc2c(S(=O)(=O)N[C@@H](Cc3ccc(C(=N)NN)cc3)C(=O)N(C)C3CCCC3)cccc12 [Example 18, (S)-3-[4-(amidrazono)-phenyl]-N-cyclopentyl-N-methyl-2-(5-dimethylamino-naphthalene-1-sulfonylamino)-propionamide] the Ki (trypsin) was 3980 nM and the Ki (bovine thrombin [4]) was 11 nM.
With N=C(NN)c1ccc(C[C@H](NS(=O)(=O)c2ccc3ccccc3c2)C(=O)N(O)C2CCCC2)cc1 [Example 10, (S)-N-cyclopentyl-N-hydroxy-3-(4-amidrazonophenyl)-2-(2-naphthylsulfonylamino)propionamide] the Ki (bovine thrombin [1]) was 367 nM.
